Test results published in ChEMBL document CHEMBL6115034, “Pseudonatural Flavonols as Novel Copper Ionophores for NAFLD Intervention via Synergistic Copper Delivery and Flavonoid Activity” (J Med Chem, 2025).
Calls of active or inactive are those of the source. The rule behind the calls is not given here.

What was measured:
[1] = Induction of copper transporting activity in human HeLa cells assessed as fold increase in intracellular copper levels at 2 uM incubated for 4 hrs by ICP-MS analysis; assay type: functional
HepG2 [2] = assay: Cytotoxicity against human HepG2 cells assessed as cell viability at 0.1 to 5 uM measured at 24 hrs by MTT assay; assay type: functional, cell-based; conditions: dose 0.1-5 µM
Hepatocyte [3] = assay: Cytotoxicity against mouse Hepatocyte assessed as cell viability at 0.1 to 5 uM measured at 24 hrs by MTT assay; assay type: toxicity, cell-based; conditions: hepatocytes, dose 0.1-5 µM
HepG2 [4] = assay: Cytotoxicity against human HepG2 cells assessed as cell viability at 0.1 to 5 uM compound administrated as copper complex measured at 24 hrs by MTT assay; assay type: functional, cell-based; conditions: dose 0.1-5 µM
Hepatocyte [5] = assay: Cytotoxicity against mouse Hepatocyte assessed as cell viability at 0.1 to 5 uM compound administrated as copper complex measured at 24 hrs by MTT assay; assay type: toxicity, cell-based; conditions: hepatocytes, dose 0.1-5 µM
HepG2 [6] = assay: Anti-NAFLD activity in palmitic acid human HepG2 NAFLD cell model assessed as cell viability at 0.1 to 0.5 uM compound administrated as copper complex measured at 24 hrs by MTT assay; assay type: functional, cell-based; conditions: dose 0.1-0.5 µM
HepG2 [7] = assay: Anti-NAFLD activity in palmitic acid human HepG2 NAFLD cell model assessed as increase in ROS level at 5 uM compound administrated as copper complex measured at 24 hrs by DCFH-DA probe based flow cytometry analysis; assay type: functional

Structure (SMILES)	fold change (FC) [1]	Activity (HepG2 [2])	Activity (Hepatocyte [3])	Activity (HepG2 [4])	Activity (Hepatocyte [5])	Activity (HepG2 [6])	Activity (HepG2 [7])
O=c1c(O)c(-c2ccc3c(Cl)ccc(O)c3n2)oc2ccccc12	~5	Active	Non-toxic	Active	Non-toxic	Active	Active
COc1ccc2oc(-c3ccc4cccc(O)c4n3)c(O)c(=O)c2c1	~5	Active	Non-toxic	Active	Non-toxic	Active	Active
